Laboratory results published in patent publication US9346809B2 (LEO PHARMA A/S, priority 2009, dated 2016).
Like-named read-outs stand apart in the source and are kept apart here.

Tests used:
Type in all cases: biochemical
[1] = target: T1, JAK1 (aa 850-1154, catalytic domain, GST-tag) (Homo sapiens, UniProt P23458); assay: JAK kinase assay (HTRF, phosphorylation of TK substrate-biotin), JAK1; settings: ATP at Km (7 μM)
T1 construct: JAK1 (aa 850-1154) and TYK2 (aa 871-1187) are expressed with an N-terminally fused GST-tag; GST (N); purchased Carna Biosciences, Inc; host or cells: baculovirus expression system
How it was run: (§1)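 Compound was mixed with TK substrate-biotin (1 μM final), then kinase plus ATP at its Km was added and left 20-30 min at room temperature. Detection mix with EDTA, Streptavidin-XL665 and STK Ab Cryptate stopped the reaction; after overnight dark incubation, HTRF was read and EC50 derived.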

[2] = target: T2, JAK2 (catalytic domain, His-tag) (Homo sapiens, UniProt O60674); assay: JAK kinase assay (HTRF, phosphorylation of TK substrate-biotin), JAK2; settings: ATP at Km (4 μM)
T2 construct: All four purified enzymes contain only the catalytic domain; His (N); purchased Carna Biosciences, Inc; host or cells: baculovirus expression system
How it was run: as §1

[3] = target: T3, JAK3 (catalytic domain, His-tag) (Homo sapiens, UniProt P52333); assay: JAK kinase assay (HTRF, phosphorylation of TK substrate-biotin), JAK3; settings: ATP at Km (2 μM)
T3 construct: All four purified enzymes contain only the catalytic domain; His (N); purchased Carna Biosciences, Inc; host or cells: baculovirus expression system
How it was run: as §1

[4] = target: T4, TYK2 (aa 871-1187, catalytic domain, GST-tag) (Homo sapiens, UniProt P29597); assay: JAK kinase assay (HTRF, phosphorylation of TK substrate-biotin), TYK2; settings: ATP at Km (13 μM)
T4 construct: JAK1 (aa 850-1154) and TYK2 (aa 871-1187) are expressed with an N-terminally fused GST-tag; GST (N); purchased Carna Biosciences, Inc; host or cells: baculovirus expression system
T4 sequence (P29597 871-1187): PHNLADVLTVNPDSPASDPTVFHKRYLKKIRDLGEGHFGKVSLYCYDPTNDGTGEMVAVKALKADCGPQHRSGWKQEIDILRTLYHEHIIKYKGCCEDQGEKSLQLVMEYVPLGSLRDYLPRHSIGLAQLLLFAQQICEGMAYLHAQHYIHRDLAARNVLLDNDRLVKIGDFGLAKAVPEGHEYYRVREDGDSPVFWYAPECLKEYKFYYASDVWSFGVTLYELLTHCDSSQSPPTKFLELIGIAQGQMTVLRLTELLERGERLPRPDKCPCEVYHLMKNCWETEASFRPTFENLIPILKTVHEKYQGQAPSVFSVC
How it was run: as §1

[5] = HTRF assay, read-out: JAK1 kinase inhibitory activity (EC50 indicator)
[6] = HTRF assay, read-out: JAK2 kinase inhibitory activity (EC50 indicator)
[7] = HTRF assay, read-out: JAK3 kinase inhibitory activity (EC50 indicator)
[8] = HTRF assay, read-out: TYK2 kinase inhibitory activity (EC50 indicator)
[9] = read-out: JAK1 kinase inhibitory activity (EC50 indicator)
[10] = read-out: JAK2 kinase inhibitory activity (EC50 indicator)
[11] = read-out: JAK3 kinase inhibitory activity (EC50 indicator)
[12] = read-out: TYK2 kinase inhibitory activity (EC50 indicator)
[13] = HTRF assay, read-out: JAK1 kinase inhibitory activity (EC50)
[14] = HTRF assay, read-out: JAK2 kinase inhibitory activity (EC50)
[15] = HTRF assay, read-out: JAK3 kinase inhibitory activity (EC50)
[16] = HTRF assay, read-out: TYK2 kinase inhibitory activity (EC50)

T2 sequence (O60674 849-1124 limits assumed): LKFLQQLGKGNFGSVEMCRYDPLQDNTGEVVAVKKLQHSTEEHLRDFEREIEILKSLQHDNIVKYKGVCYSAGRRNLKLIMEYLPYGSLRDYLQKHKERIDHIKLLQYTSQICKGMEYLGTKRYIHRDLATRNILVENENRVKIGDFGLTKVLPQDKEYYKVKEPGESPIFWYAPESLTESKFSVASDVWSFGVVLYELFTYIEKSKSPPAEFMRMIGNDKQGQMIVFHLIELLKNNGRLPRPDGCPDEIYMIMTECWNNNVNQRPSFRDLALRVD
T1 sequence (P23458 850-1154): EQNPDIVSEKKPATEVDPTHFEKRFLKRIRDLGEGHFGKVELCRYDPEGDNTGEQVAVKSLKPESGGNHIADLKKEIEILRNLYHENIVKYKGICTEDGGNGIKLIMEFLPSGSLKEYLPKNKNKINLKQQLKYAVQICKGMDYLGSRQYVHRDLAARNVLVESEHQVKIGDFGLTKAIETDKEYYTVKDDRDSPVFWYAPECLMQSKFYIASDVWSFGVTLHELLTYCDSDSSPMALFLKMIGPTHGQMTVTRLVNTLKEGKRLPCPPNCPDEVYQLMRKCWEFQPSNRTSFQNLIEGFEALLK
T3 sequence (P52333 822-1111 limits assumed): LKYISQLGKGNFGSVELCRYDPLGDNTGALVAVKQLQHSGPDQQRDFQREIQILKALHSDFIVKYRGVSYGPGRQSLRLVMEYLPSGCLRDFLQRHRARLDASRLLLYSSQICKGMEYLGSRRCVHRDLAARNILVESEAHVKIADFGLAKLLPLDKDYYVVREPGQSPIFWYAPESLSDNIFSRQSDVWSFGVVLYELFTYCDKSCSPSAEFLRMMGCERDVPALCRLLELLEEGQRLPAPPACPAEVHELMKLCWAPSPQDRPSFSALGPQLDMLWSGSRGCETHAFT

| Compound | EC50 [1, 5] | EC50 [2, 6] | EC50 [3, 7] | EC50 [4, 8] | EC50 [1, 9] | EC50 [2, 10] | EC50 [3, 11] | EC50 [4, 12] | also measured |
| --- | --- | --- | --- | --- | --- | --- | --- | --- | --- |
| N#CC1(C(=O)N2C[C@@H]3C[C@H]2CN3c2ncnc3[nH]ccc23)CC1 [Example 270, 1-[5-(7H-Pyrrolo[2,3-d]pyrimidin-4-yl)-2,5-diaza-bicyclo[2.2.1]heptane-2-carbonyl]-cyclopropanecarbonitrile] | > 500 nM | > 500 nM | > 500 nM | > 500 nM | – | – | – | – | – |
| O=C(c1ccc2[nH]ccc2c1)N1CCN(c2ncnc3[nH]ccc23)CC12CC2 [Example 157, (1H-Indol-5-yl)-[7-(7H-pyrrolo[2,3-d]pyrimidin-4-yl)-4,7-diaza-spiro[2.5]oct-4-yl]-methanone] | – | – | – | – | < 100 nM | < 100 nM | < 100 nM | 100 to 500 nM | – |
| NS(=O)(=O)c1ccc(C(=O)N2CCN(c3ncnc4[nH]ccc34)CC23CC3)cc1Cl [Example 103, 2-Chloro-4-[7-(7H-pyrrolo[2,3-d]pyrimidin-4-yl)-4,7-diaza-spiro[2.5]octane-4-carbonyl]-benzenesulfonamide] | – | – | – | – | < 100 nM | < 100 nM | < 100 nM | < 100 nM | – |
| S=C(COc1ccccc1)N1CCN(c2ncnc3[nH]ccc23)CC12CC2 [Example 448, 2-Phenoxy-1-[7-(7H-pyrrolo[2,3-d]pyrimidin-4-yl)-4,7-diaza-spiro[2.5]oct-4-yl]-ethanethione] | – | – | – | – | – | – | – | – | EC50 [1, 13]: < 100 nM; EC50 [2, 14]: < 100 nM; EC50 [3, 15]: < 100 nM; EC50 [4, 16]: 100 to 500 nM |
| N#Cc1ccc(C(=O)N2CCN(c3ncnc4[nH]ccc34)CC23CC3)cc1 [Example 15, 4-[7-(7H-Pyrrolo[2,3-d]pyrimidin-4-yl)-4,7-diazaspiro[2.5]octane-4-carbonyl]benzonitrile] | – | – | – | – | < 100 nM | < 100 nM | 100 to 500 nM | 100 to 500 nM | – |
| CCS(=O)(=O)Nc1ccc(C(=O)N2CCN(c3ncnc4[nH]ccc34)CC23CC3)cc1 [Example 210, Ethanesulfonic acid {4-[7-(7H-pyrrolo[2,3-d]pyrimidin-4-yl)-4,7-diaza-spiro[2.5]octane-4-carbonyl]-phenyl}-amide] | < 100 nM | < 100 nM | < 100 nM | < 100 nM | – | – | – | – | – |
| O=C(c1ccncc1)N1CCN(c2ccnc3[nH]ccc23)CC12CC2 [Example 224, Pyridin-4-yl-[7-(1H-pyrrolo[2,3-b]pyridin-4-yl)-4,7-diaza-spiro[2.5]oct-4-yl]-methanone] | 100 to 500 nM | 100 to 500 nM | > 500 nM | > 500 nM | – | – | – | – | – |
| O=C(NCCc1ccccc1)N1CCN(c2ncnc3[nH]ccc23)CC12CC2 [Example 445, 7-(7H-Pyrrolo[2,3-d]pyrimidin-4-yl)-4,7-diaza-spiro[2.5]octane-4-carboxylic acid phenethyl-amide] | – | – | – | – | – | – | – | – | EC50 [1, 13]: < 100 nM; EC50 [2, 14]: < 100 nM; EC50 [3, 15]: 100 to 500 nM; EC50 [4, 16]: > 500 nM |
| N#CC1(C(=O)N2[C@@H]3CC[C@@H]2CN(c2ncnc4[nH]ccc24)C3)CCOCC1 [Example 248, 4-[3-(7H-Pyrrolo[2,3-d]pyrimidin-4-yl)-3,8-diaza-bicyclo[3.2.1]octane-8-carbonyl]-tetrahydro-pyran-4-carbonitrile] | 100 to 500 nM | < 100 nM | 100 to 500 nM | > 500 nM | – | – | – | – | – |
| COC(=O)c1cc2c(N3CCN(C(=O)Cc4cccc(CC#N)c4)C4(CC4)C3)ncnc2[nH]1 [Example 121, 4-{4-[2-(3-Cyanomethyl-phenyl)-acetyl]-4,7-diaza-spiro[2.5]oct-7-yl}-7H-pyrrolo[2,3-d]pyrimidine-6-carboxylic acid methyl ester] | – | – | – | – | > 500 nM | > 500 nM | > 500 nM | > 500 nM | – |
| N#CCc1ccccc1C(=O)N1CCN(c2ncnc3[nH]ccc23)CC12CC2 [Example 300, {2-[7-(7H-Pyrrolo[2,3-d]pyrimidin-4-yl)-4,7-diaza-spiro[2.5]octane-4-carbonyl]-phenyl}-acetonitrile] | < 100 nM | < 100 nM | 100 to 500 nM | 100 to 500 nM | – | – | – | – | – |
| N#CCCC(=O)N1CCN(c2ncnc3[nH]ccc23)CC12CC2 [Example 167, 4-Oxo-4-[7-(7H-pyrrolo[2,3-d]pyrimidin-4-yl)-4,7-diaza-spiro[2.5]oct-4-yl]-butyronitrile] | – | – | – | – | < 100 nM | < 100 nM | < 100 nM | 100 to 500 nM | – |
| O=C(COc1ccccc1)N1CCN(c2ncnc3[nH]ccc23)CC12CC2 [Example 442, 2-Phenoxy-1-[7-(7H-pyrrolo[2,3-d]pyrimidin-4-yl)-4,7-diaza-spiro[2.5]oct-4-yl]-ethanone] | – | – | – | – | – | – | – | – | EC50 [1, 13]: < 100 nM; EC50 [2, 14]: < 100 nM; EC50 [3, 15]: < 100 nM; EC50 [4, 16]: 100 to 500 nM |
| CCCCNC(=O)N1CCN(c2ncnc3[nH]ccc23)CC12CC2 [Example 444, 7-(7H-Pyrrolo[2,3-d]pyrimidin-4-yl)-4,7-diaza-spiro[2.5]octane-4-carboxylic acid butylamide] | – | – | – | – | – | – | – | – | EC50 [1, 13]: < 100 nM; EC50 [2, 14]: < 100 nM; EC50 [3, 15]: 100 to 500 nM; EC50 [4, 16]: > 500 nM |
| CS(=O)(=O)c1ccc(C(=O)N2C3CCC2CN(c2ncnc4[nH]ccc24)C3)cc1F [Example 131, (3-Fluoro-4-methanesulfonyl-phenyl)-[3-(7H-pyrrolo[2,3-d]pyrimidin-4-yl)-3,8-diaza-bicyclo[3.2.1]oct-8-yl]-methanone] | – | – | – | – | < 100 nM | < 100 nM | 100 to 500 nM | 100 to 500 nM | – |
| O=C(c1ccc(C(F)(F)F)cc1)N1[C@@H]2CC[C@H]1CN(c1ncnc3[nH]ccc13)C2 [Example 1, [3-(7H-Pyrrolo[2,3-d]pyrimidin-4-yl)-3,8-diazabicyclo[3.2.1]oct-8-yl]-(4-trifluoromethylphenyl)methanone] | – | – | – | – | < 100 nM | 100 to 500 nM | > 500 nM | > 500 nM | – |

Continued, in another order:

| EC50 [1, 5] | EC50 [2, 6] | EC50 [3, 7] | EC50 [4, 8] | EC50 [1, 9] | EC50 [2, 10] | EC50 [3, 11] | EC50 [4, 12] | Compound | also measured |
| --- | --- | --- | --- | --- | --- | --- | --- | --- | --- |
| < 100 nM | < 100 nM | < 100 nM | 100 to 500 nM | – | – | – | – | CC(C)(C)OC(=O)NCCNS(=O)(=O)c1ccc(C(=O)N2CCN(c3ncnc4[nH]ccc34)CC23CC3)cc1 [Example 428, (2-{4-[7-(7H-Pyrrolo[2,3-d]pyrimidin-4-yl)-4,7-diaza-spiro[2.5]octane-4-carbonyl]-benzenesulfonylamino}-ethyl)-carbamic acid tert-butyl ester] | – |
| < 100 nM | < 100 nM | 100 to 500 nM | > 500 nM | – | – | – | – | CC(C)CNS(=O)(=O)c1csc(C(=O)N2CCN(c3ncnc4[nH]ccc34)CC23CC3)c1 [Example 423, 5-[7-(7H-Pyrrolo[2,3-d]pyrimidin-4-yl)-4,7-diaza-spiro[2.5]octane-4-carbonyl]-thiophene-3-sulfonic acid isobutyl-amide] | – |
| 100 to 500 nM | < 100 nM | 100 to 500 nM | > 500 nM | – | – | – | – | O=C(Cc1ccc(F)cc1)N1CCN(c2ncnc3[nH]cc(Cl)c23)CC12CC2 [Example 320, 1-[7-(5-Chloro-7H-pyrrolo[2,3-d]pyrimidin-4-yl)-4,7-diaza-spiro[2.5]oct-4-yl]-2-(4-fluoro-phenyl)-ethanone] | – |
| < 100 nM | < 100 nM | 100 to 500 nM | 100 to 500 nM | – | – | – | – | Cc1cc(C(=O)N2CCN(c3ncnc4[nH]ccc34)CC23CC3)ccc1S(C)(=O)=O [Example 403, (4-Methanesulfonyl-3-methyl-phenyl)-[7-(7H-pyrrolo[2,3-d]pyrimidin-4-yl)-4,7-diaza-spiro[2.5]oct-4-yl]-methanone] | – |
| < 100 nM | < 100 nM | < 100 nM | 100 to 500 nM | – | – | – | – | N#Cc1ccc(C2(C(=O)N3CCN(c4ncnc5[nH]ccc45)CC34CC4)CC2)cc1 [Example 429, 4-{1-[7-(7H-Pyrrolo[2,3-d]pyrimidin-4-yl)-4,7-diaza-spiro[2.5]octane-4-carbonyl]-cyclopropyl}-benzonitrile] | – |
| < 100 nM | < 100 nM | < 100 nM | < 100 nM | – | – | – | – | NS(=O)(=O)c1ccc(C(=O)N2CCN(c3ncnc4[nH]ccc34)CC23CC3)s1 [Example 405, 5-[7-(7H-Pyrrolo[2,3-d]pyrimidin-4-yl)-4,7-diaza-spiro[2.5]octane-4-carbonyl]-thiophene-2-sulfonic acid amide] | – |
